From US20130315829A1, “Compounds and Methods for Detecting Reactive Oxygen Species” (The Regents of the University of California, priority 2010, published 2013)

What was measured:
LNCaP-luc tumors = assay: LNCaP-luc tumor xenograft model in SHO mice; type: in vivo, mouse
Method: Animals. […] Mice were single or group-housed on a 12:12 light-dark cycle at 71° C. with free access to food and water.
Tumor xenografts were created via i.p. injection of 3×10̂6 LNCaP-luc cells (100 μL, 1:1 PBS:Matrigel) in adult SHO mice. Tumor size was monitored by injecting 0.5-5 μmol D-lucifeirn (potassium salt, Gold Biotech., St. Louis, Mo.) in PBS. At least two weeks post-inoculation, tumors were injected with PCL-1, valeryl luciferin, testosterone propionate and N-acetylcysteine in various combinations to obtain the experimental data. On day one of the experiments, mice were injected with either PCL-1 (0.5 μmol) or valeryl luciferin (0.44 μmol) and imaged for 45 minutes using an IVIS spectrum. To determine the effect of testosterone on the tumors, the mice were injected with testosterone propionate (3 mg in 50 μL sesame oil) on day 2, followed 1.5 hours later by an injection of PCL-1 (0.5 μmol) or valeryl luciferin (0.44 μmol). Controls for the testosterone experiment were completed by injecting sesame oil (50 μL) on day 2, followed by the probe (0.5 μmol) or valeryl luciferin (0.44 μmol) 1.5 hours later. Additional experiments with N-acetylcysteine were completed by injecting the mice with testosterone propionate (3 mg in 50 μL sesame oil) on day 2, followed 1.5 hours later by injections of N-acetylcysteine (0.2 mg in 100 μL PBS) and PCL-1 (0.5 μmol). Day 2 injections were followed by 45 minutes of imaging.
To study the stimulatory effects of testosterone and H2O2 production in prostate cancer in living animals, an intraperitoneal (i.p.) LNCaP-luc tumor xenograft model was developed in immunodeficient severe combined immunodeficiency hairless outbred (SHO) mice. To determine the baseline levels of H2O2 generation in the tumors as well as alterations in H2O2 fluxes over 24 hours, mice were injected with PCL-1 on Day 1 and with sesame oil, a vehicle used for all experiments, and PCL-1 after 24 hours on Day 2. […] The effects of testosterone (in the form of testosterone propionate) on H2O2 production were tested within the prostate cancer tumors. For these experiments, mice were injected with PCL-1 on Day 1 and the baseline signal was measured. On Day 2, the mice were injected either with testosterone propionate and then PCL-1, or empty vehicle and PCL-1.
These experiments were performed by injecting mice on Day 2 with testosterone propionate, followed by serial application of NAC and PCL-1.

FVB-luc mice [1] = assay: In vivo antioxidant experiments in FVB-luc mice; parameters: species or system mouse; conditions: NAC 0.2 mg i.p. then PCL-1 i.p., total photon flux over one hour
From the text: (§1) A Xenogen IVIS Spectrum instrument (Caliper Life Sciences, Hopkinton, Mass.) was used for bioluminescent imaging in all in vivo experiments. Phosphate Buffered Saline (PBS) was purchased from Thermo Fisher Scientific (Waltham, Mass.). Isoflurane was purchased from Phoenix Pharmaceuticals, Inc. (St. Joseph, Mo.), and sterile DMSO was purchased from Sigma-Aldrich (St. Louis, Mo.). Medical grade oxygen was purchased from Praxair (Danbury, Conn.).
(§2) Animals. FVB-luc (FVB-Tg(CAG-luc,-GFP)L2G85Chco/J) mice were obtained from UC Davis, and SHO mice were obtained from Charles River Labs. Mice were single or group-housed on a 12:12 light-dark cycle at […] with free access to food and water. All studies were approved and performed according to the guidelines of the Animal Care and Use Committee of the University of California, Berkeley.
Adult FVB-luc mice were anesthetized with isoflurane and injected with N-acetylcysteine (0.2 mg, 100 μL PBS, pH 7-8), followed immediately by an i.p. injection of PCL-1 (5 μmol, 50 μL 1:1 DMSO:PBS). Control mice were injected with 100 μL PBS and PCL-1.
(§3) PCL-1 was applied to molecular imaging of H2O2 in living animals. Initial studies utilized FVB-luc mice that ubiquitously express firefly luciferase along with exogenous peroxide addition. […]

FVB-luc mice [2] = assay: In vivo exogenous H2O2 experiments in FVB-luc mice; parameters: species or system mouse; conditions: PCL-1 i.p. 0.5 μmol
From the text: as §1, §2
Adult FVB-luc mice were anesthetized with isoflurane and injected (i.p.) with PCL-1 (0.5 μmol, 50 μL 1:1 DMSO:PBS), followed immediately by an i.p. injection of H2O2 (0.0375, 0.15, 0.6, and 2.4 μmol in 100 μL PBS). Control mice were injected with PCL-1 and 100 μL PBS.
as §3

[3] = In vitro ROS selectivity test with purified firefly luciferase: H2O2; type: biochemical; conditions: PCL-1 5 μM, H2O2 100 μM, over an hour, then firefly luciferase; light integrated over 45 minutes
Method: (§4) Millipore water was used to prepare all aqueous solutions. Measurements for in vitro tests were performed in 50 mM Tris buffer, pH 7.4, with 10 mM MgCl2, 0.1 mM ZnCl2, and 2 mM ATP at 37° C. Bioluminescent measurements for in vitro tests were recorded using a Molecular Devices SpectraMax M2 plate reader (Sunnyvale, Calif.). Samples for bioluminescent measurements were placed in white, opaque 96-well plates, which were purchased from Corning Inc. (Corning, N.Y.). ATP was purchased from MP Biomedicals (Solon, Ohio), and luciferase was purchased from Promega (Madison, Wis.).
(§5) Various reactive oxygen species (ROS, 100 μM) were administered to PCL-1 (5 μM) in the Tris buffer as follows. Hydrogen peroxide (H2O2), tert-butyl hydroperoxide (TBHP), and hypochlorite (OCl^−) were delivered from 30%, 70%, and 6.15% aqueous solutions, respectively. […]
(§6) Initial experiments tested the ability of PCL-1 to detect H2O2 in a selective and concentration-dependent manner. […] PCL-1 was incubated with various ROS for 5-60 minutes followed by addition of firefly luciferase, and then light production was measured over 45 minutes to determine whether luciferin was produced during the ROS incubation period. The total normalized photon flux was calculated by dividing each total photon flux by the zero timepoint total photon flux for each run to allow a direct comparison between various ROS. […]

LNCaP-luc cells [4] = assay: Bioluminescence of LNCaP-luc cells with PCL-1 and exogenous H2O2; type: cell-based, human; conditions: PCL-1 50 μM
Method: A Xenogen IVIS Spectrum instrument (Caliper Life Sciences, Hopkinton, Mass.) was used for bioluminescent imaging in all ex vivo experiments. LNCaP-luc cells (kindly provided by Chris Contag, Stanford University) were cultured in Dulbecco's Modified Eagle Medium (DMEM) containing 10% Fetal Bovine Serum (FBS). Cells were split twice per week. Prior to assaying, cells were passed and plated (4×10^4 cells/well) in black 96-well plates with clear bottoms (Becton Dickinson and Company, Franklin Lakes, N.J.). Two days after being plated, once the cells were ca. 95% confluent, the medium was removed and PCL-1 (2.5% final DMSO concentration) and H2O2 (2.5-500 μM final concentrations) in DMEM (−FBS) were added. The plate was immediately imaged for 2 hours. For stimulation experiments, the cells (ca. 95 confluent) were incubated with paraquat (0 or 500 μM, 100 μL DMEM+10% FBS) for 24 hours prior to the addition of PCL-1 (50 μM) with or without catalase (1×10̂4 U/L).
With data showing that PCL-1 is a selective and sensitive bioluminescent reporter for H2O2 in aqueous solution, this system was applied to imaging changes in H2O2 levels in cell culture. […] To achieve this goal, PCL-1 and H2O2 were added to LNCaP-luc cells stably transfected with the firefly luciferase gene. In the absence of H2O2, the bioluminescent signal from the cells was negligible. In contrast, addition of 2.5 to 500 μM H2O2 triggers a linear increase, up to 250 μM, in the total observed photon flux (FIG. 3). The 2.5 μM detection limit for H2O2 is well within estimated concentration ranges of endogenously produced H2O2 fluxes.
Total photon flux, integrated over 2 h, from LNCaP-luc cells with PCL-1 (50 μM) and H2O2 (2.5-500 μM) in DMEM. All values show statistically significant differences (p<0.001) except between 250 and 500 μM H2O2. (b) Total photon flux, integrated over 2 h, from LNCaP-luc cells incubated with paraquat (0 or 500 μM) for 24 h, followed by addition of PCL-1 (50 μM)±catalase (1×10̂4 U/L). […]

[5] = In vitro ROS selectivity test with purified firefly luciferase: other ROS; type: biochemical; conditions: PCL-1 5 μM, ROS 100 μM, 5-60 minutes, then firefly luciferase
Method: as §4, §5, §6

LNCaP-luc cells [6] = assay: Paraquat stimulation of endogenous H2O2 in LNCaP-luc cells, with or without catalase; type: cell-based, human
Method: A Xenogen IVIS Spectrum instrument (Caliper Life Sciences, Hopkinton, Mass.) was used for bioluminescent imaging in all ex vivo experiments. […] Cells were split twice per week. Prior to assaying, cells were passed and plated (4×10^4 cells/well) in black 96-well plates with clear bottoms (Becton Dickinson and Company, Franklin Lakes, N.J.). Two days after being plated, once the cells were ca. 95% confluent, the medium was removed and PCL-1 (2.5% final DMSO concentration) and H2O2 (2.5-500 μM final concentrations) in DMEM (−FBS) were added. The plate was immediately imaged for 2 hours. For stimulation experiments, the cells (ca. 95 confluent) were incubated with paraquat (0 or 500 μM, 100 μL DMEM+10% FBS) for 24 hours prior to the addition of PCL-1 (50 μM) with or without catalase (1×10̂4 U/L).
To determine whether PCL-1 could detect endogenously produced H2O2 in living cells, LNCaP-luc cells were incubated with 500 μM paraquat for 24 hours, as previous work establishes that paraquat triggers elevations in intracellular H2O2 through disruption of the mitochondrial electron transport chain. Following paraquat stimulation, the LNCaP-luc cells were loaded with PCL-1 and the subsequent bioluminescent signal was detected.
Because luciferin is a cell-permeable small molecule, two possible modes of action for PCL-1 are (i) reaction of this probe with H2O2 in the extracellular medium followed by cellular uptake of the free luciferin product, or (ii) reaction of PCL-1 with intracellular H2O2 to generate luciferin within cells. To probe whether PCL-1 was reacting with H2O2 in the intra- or extracellular space, catalase was added as a cell-impermeable scavenger for extracellular H2O2 with paraquat stimulation.

With CC(=O)N[C@@H](CS)C(=O)O [NAC, N-acetylcysteine] the “bioluminescent signal in testosterone-stimulated animals after NAC treatment” value (LNCaP-luc tumors; SHO mice with LNCaP-luc tumors, testosterone propionate 3 mg, then NAC 0.2 mg and PCL-1 0.5 μmol) was “reduction in bioluminescent signal in testosterone-stimulated animals back to baseline levels” and the “bioluminescent signal of NAC-treated animals compared to vehicle control animals” value (FVB-luc mice [1]) was “significantly reduced bioluminescent signal”.

In the case of O=C(O)[C@H]1CSC(c2nc3ccc(OCc4ccc(B(O)O)cc4)cc3s2)=N1 [PCL-1, (S)-2-(6-(4-Boronobenzyloxy)benzo[d]thiazol-2-yl)-4,5-dihydrothiazole-4-carboxylic acid], the “bioluminescence of mice treated only with PCL-1, no added peroxide” value (FVB-luc mice [2]) is reported as “modest but measurable bioluminescence”, the “integrated total photon flux as a function of the H2O2 concentration” value (FVB-luc mice [2]; then H2O2 i.p., integrated over one hour) is reported as “dose-dependent increase in signal” and the “change in basal bioluminescent signal from Day 1 to Day 2” value (LNCaP-luc tumors; SHO mice with LNCaP-luc tumors, PCL-1 0.5 μmol Day 1, sesame oil and PCL-1 Day 2) is reported as “no change in basal bioluminescent signal”. For the same compound, the “increase in bioluminescent signal (total normalized photon flux) on addition of H2O2” value [3] was “approximately seven-fold”, the “detection limit for H2O2” value (LNCaP-luc cells [4]) was 2.5 µM and the “H2O2 concentration up to which total observed photon flux increases linearly” value (LNCaP-luc cells [4]; H2O2 2.5 to 500 μM, integrated over 2 h) was “up to 250 μM”. The “bioluminescent signal from the cells in the absence of H2O2” value (LNCaP-luc cells [4]; no H2O2) was “negligible” and the “increase in bioluminescent signal on reaction with the other ROS” value [5] was “little to no increase in signal”.

With O=C(O)[C@H]1CSC(c2nc3ccc(O)cc3s2)=N1 [luciferin] the “time after injection at which the signal peak is reached” value (LNCaP-luc tumors; LNCaP-luc cells, peak before first imaging timepoint) was < 1 min.

In the case of C[n+]1ccc(-c2cc[n+](C)cc2)cc1 [paraquat, reference compound], the “PCL-1 derived luminescence compared to unstimulated control cells” value (LNCaP-luc cells [6]; 500 μM paraquat for 24 hours, then PCL-1 50 μM) is reported as “patently higher”.

With CCC(=O)O[C@H]1CC[C@H]2[C@@H]3CCC4=CC(=O)CC[C@]4(C)[C@H]3CC[C@]12C [testosterone propionate] the “increase in total photon flux compared to vehicle control mice” value (LNCaP-luc tumors; SHO mice with LNCaP-luc tumors, testosterone propionate 3 mg in sesame oil, PCL-1 0.5 μmol 1.5 h later) was “approximately 41%”.

In the case of catalase, the “bioluminescence signal with catalase plus paraquat compared to paraquat alone” value (LNCaP-luc cells [6]; 500 μM paraquat 24 h, PCL-1 50 μM, catalase 1×10^4 U/L) is reported as “decrease in bioluminescence signal” and the “PCL-1 bioluminescence of catalase-treated cells compared to untreated specimens” value (LNCaP-luc cells [6]; no paraquat, PCL-1 50 μM, catalase 1×10^4 U/L) is reported as “reduces the level of PCL-1 bioluminescence”.
